Assay results as given in the NIST ThermoML archive (doi:10.1016/j.jct.2016.10.016).
Numbers after ± are expanded uncertainties.

Experiment: mn = molality of the nth substance listed, in mol/kg
Conditions: 101.3 kPa, Liquid

O [water] + COC(=O)[C@@H](N)C(C)C.Cl
Conditions	speed of sound [m/s]
278.15 K, Frequency=2 MHz, Linear variable-path acoustic interferometer, m2 = 0	1426.2 ± 2

Conditions	mass density [kg/m3]
278.15 K, Pycnometric method, m2 = 0	999.96 ± 0.28

O [water] + COC(=O)[C@H](C)N.Cl
Conditions	speed of sound [m/s]
278.15 K, Frequency=2 MHz, Linear variable-path acoustic interferometer, m2 = 0	1426.2 ± 2

Conditions	mass density [kg/m3]
278.15 K, Pycnometric method, m2 = 0	999.96 ± 0.28

COC(=O)[C@@H](N)C(C)C.Cl [methyl L-valinate hydrochloride] + O
Conditions	speed of sound [m/s]
278.15 K, Frequency=2 MHz, Linear variable-path acoustic interferometer, m1 = 0.0389	1431.7 ± 2
278.15 K, Frequency=2 MHz, Linear variable-path acoustic interferometer, m1 = 0.0499	1433.3 ± 2
278.15 K, Frequency=2 MHz, Linear variable-path acoustic interferometer, m1 = 0.0592	1434.2 ± 2
278.15 K, Frequency=2 MHz, Linear variable-path acoustic interferometer, m1 = 0.0705	1436.3 ± 2
278.15 K, Frequency=2 MHz, Linear variable-path acoustic interferometer, m1 = 0.0811	1437.4 ± 2
278.15 K, Frequency=2 MHz, Linear variable-path acoustic interferometer, m1 = 0.0888	1438.7 ± 2
278.15 K, Frequency=2 MHz, Linear variable-path acoustic interferometer, m1 = 0.1015	1441.1 ± 2
278.15 K, Frequency=2 MHz, Linear variable-path acoustic interferometer, m1 = 0.1094	1441.3 ± 2
278.15 K, Frequency=2 MHz, Linear variable-path acoustic interferometer, m1 = 0.1204	1443.8 ± 2
278.15 K, Frequency=2 MHz, Linear variable-path acoustic interferometer, m1 = 0.1307	1445.3 ± 2
278.15 K, Frequency=2 MHz, Linear variable-path acoustic interferometer, m1 = 0.1428	1446.5 ± 2
278.15 K, Frequency=2 MHz, Linear variable-path acoustic interferometer, m1 = 0.1528	1448 ± 2
288.15 K, Frequency=3 MHz, Sing-around technique in a fixed-path interferometer, m1 = 0.0507	1472.3 ± 1.2
288.15 K, Frequency=3 MHz, Sing-around technique in a fixed-path interferometer, m1 = 0.0607	1473.5 ± 1.2
288.15 K, Frequency=3 MHz, Sing-around technique in a fixed-path interferometer, m1 = 0.0699	1474.5 ± 1.2
288.15 K, Frequency=3 MHz, Sing-around technique in a fixed-path interferometer, m1 = 0.0798	1475.7 ± 1.2
288.15 K, Frequency=3 MHz, Sing-around technique in a fixed-path interferometer, m1 = 0.09	1476.9 ± 1.2
288.15 K, Frequency=3 MHz, Sing-around technique in a fixed-path interferometer, m1 = 0.0999	1478.3 ± 1.2
288.15 K, Frequency=3 MHz, Sing-around technique in a fixed-path interferometer, m1 = 0.1099	1479.2 ± 1.2
288.15 K, Frequency=3 MHz, Sing-around technique in a fixed-path interferometer, m1 = 0.1201	1480.4 ± 1.3
288.15 K, Frequency=3 MHz, Sing-around technique in a fixed-path interferometer, m1 = 0.1295	1481.6 ± 1.3
288.15 K, Frequency=3 MHz, Sing-around technique in a fixed-path interferometer, m1 = 0.1399	1482.8 ± 1.3
288.15 K, Frequency=3 MHz, Sing-around technique in a fixed-path interferometer, m1 = 0.1497	1484.3 ± 1.3
288.15 K, Frequency=3 MHz, Sing-around technique in a fixed-path interferometer, m1 = 0.16	1485.9 ± 1.3
298.15 K, Frequency=3 MHz, Sing-around technique in a fixed-path interferometer, m1 = 0.0405	1501.4 ± 1.2
298.15 K, Frequency=3 MHz, Sing-around technique in a fixed-path interferometer, m1 = 0.0504	1502.5 ± 1.2
298.15 K, Frequency=3 MHz, Sing-around technique in a fixed-path interferometer, m1 = 0.06	1503.7 ± 1.2
298.15 K, Frequency=3 MHz, Sing-around technique in a fixed-path interferometer, m1 = 0.0703	1504.9 ± 1.2
298.15 K, Frequency=3 MHz, Sing-around technique in a fixed-path interferometer, m1 = 0.0804	1505.9 ± 1.2
298.15 K, Frequency=3 MHz, Sing-around technique in a fixed-path interferometer, m1 = 0.0903	1507.1 ± 1.2
298.15 K, Frequency=3 MHz, Sing-around technique in a fixed-path interferometer, m1 = 0.1001	1508.1 ± 1.3
298.15 K, Frequency=3 MHz, Sing-around technique in a fixed-path interferometer, m1 = 0.1103	1509.6 ± 1.3
298.15 K, Frequency=3 MHz, Sing-around technique in a fixed-path interferometer, m1 = 0.12	1510.3 ± 1.2
298.15 K, Frequency=3 MHz, Sing-around technique in a fixed-path interferometer, m1 = 0.1305	1511.4 ± 1.3
298.15 K, Frequency=3 MHz, Sing-around technique in a fixed-path interferometer, m1 = 0.1401	1513 ± 1.3
298.15 K, Frequency=3 MHz, Sing-around technique in a fixed-path interferometer, m1 = 0.1514	1513.8 ± 1.2

Conditions	mass density [kg/m3]
278.15 K, Pycnometric method, m1 = 0.0389	1001.17 ± 0.28
278.15 K, Pycnometric method, m1 = 0.0499	1001.51 ± 0.28
278.15 K, Pycnometric method, m1 = 0.0592	1001.8 ± 0.28
278.15 K, Pycnometric method, m1 = 0.0705	1002.15 ± 0.28
278.15 K, Pycnometric method, m1 = 0.0811	1002.48 ± 0.28
278.15 K, Pycnometric method, m1 = 0.0888	1002.72 ± 0.28
278.15 K, Pycnometric method, m1 = 0.1015	1003.1 ± 0.29
278.15 K, Pycnometric method, m1 = 0.1094	1003.35 ± 0.29
278.15 K, Pycnometric method, m1 = 0.1204	1003.7 ± 0.29
278.15 K, Pycnometric method, m1 = 0.1307	1004 ± 0.29
278.15 K, Pycnometric method, m1 = 0.1428	1004.38 ± 0.29
278.15 K, Pycnometric method, m1 = 0.1528	1004.7 ± 0.3
288.15 K, Vibrating tube method, m1 = 0.0507	1000.66 ± 0.11
288.15 K, Vibrating tube method, m1 = 0.0607	1000.96 ± 0.11
288.15 K, Vibrating tube method, m1 = 0.0699	1001.25 ± 0.12
288.15 K, Vibrating tube method, m1 = 0.0798	1001.55 ± 0.12
288.15 K, Vibrating tube method, m1 = 0.09	1001.87 ± 0.12
288.15 K, Vibrating tube method, m1 = 0.0999	1002.17 ± 0.12
288.15 K, Vibrating tube method, m1 = 0.1099	1002.46 ± 0.13
288.15 K, Vibrating tube method, m1 = 0.1201	1002.78 ± 0.13
288.15 K, Vibrating tube method, m1 = 0.1295	1003.07 ± 0.13
288.15 K, Vibrating tube method, m1 = 0.1399	1003.4 ± 0.14
288.15 K, Vibrating tube method, m1 = 0.1497	1003.7 ± 0.14
288.15 K, Vibrating tube method, m1 = 0.16	1004 ± 0.14
298.15 K, Vibrating tube method, m1 = 0.0405	998.23 ± 0.11
298.15 K, Vibrating tube method, m1 = 0.0504	998.52 ± 0.11
298.15 K, Vibrating tube method, m1 = 0.06	998.78 ± 0.11
298.15 K, Vibrating tube method, m1 = 0.0703	999.08 ± 0.11
298.15 K, Vibrating tube method, m1 = 0.0804	999.37 ± 0.12
298.15 K, Vibrating tube method, m1 = 0.0903	999.66 ± 0.12
298.15 K, Vibrating tube method, m1 = 0.1001	999.92 ± 0.12
298.15 K, Vibrating tube method, m1 = 0.1103	1000.24 ± 0.13
298.15 K, Vibrating tube method, m1 = 0.12	1000.51 ± 0.12
298.15 K, Vibrating tube method, m1 = 0.1305	1000.78 ± 0.13
298.15 K, Vibrating tube method, m1 = 0.1401	1001.06 ± 0.13
298.15 K, Vibrating tube method, m1 = 0.1514	1001.39 ± 0.14
